The source of these data is patent US7314864B1, “Humanin, a polypeptide suppressing neuronal death” (Keio University, priority 1999, dated 2008).

Data set [1] deals with F11 cells transfected with FAD genes (V642I APP, NL-APP, M146L PS-1, N141I PS-2). Nature of the data set: FAD gene-induced F11 cell death, trypan blue exclusion assay. Format: cell-based, rat/mouse hybrid. The note with it: for concentration giving complete antagonism/rescue of neuronal death: all four types of FAD genes; for neuroprotective activity relative to HNG: all types of cell death (FAD genes, Aβ); for suppression of FAD gene-induced cell death: 10 nM polypeptide. The method, then: (§1) F11 cells (Platika, D. et al. (1985) Proc. Natl. Acad. Sci. U.S.A. 82, 3499-3503; Yamatsuji, T. et al. (1996) Science 272, 1349-1352) were cultured in HamF-12 media containing 18% fetal bovine serum (FBS) and antibiotics. 7×10^4/well of F11 cells were seeded into a 6-well plate; cultured in HamF-12 containing 18% FBS for 12 to 16 hours; transfected 3 hours with plasmids encoding FAD genes and plasmids encoding HN (pHN, and such) by lipofection in the absence of serum (1 μg of FAD cDNA expression plasmid, 1 μg of HN cDNA expression plasmid, 4 μl of LipofectAMINE, 8 μl of Plus reagent); and then, were cultured for 2 hours in HamF-12 media containing 18% FBS. Then, culture media were exchanged with HamF-12 media containing 10% FBS; and the cells were cultured for additional 67 hours. 72 hours after transfection, cell death was measured by trypan blue exclusion assay. Experiments using synthetic HN polypeptides were conducted as follows: F11 cells (at 7×10^4/well in a 6-well plate) were transfected 3 hours with FAD genes in the absence of serum, as mentioned above; after cultivation for 2 hours in HamF-12 media containing 18% FBS, the cells were cultured for 67 hours in HamF-12 media containing 10% FBS with various concentrations of HN polypeptides; and cell death was measured by trypan blue exclusion assay. ALS-associated mutant cDNAs of SOD1 were also similarly transfected, and examined for their neurotoxicity.
(§2) Trypan blue exclusion assay was performed as follows. Without prewashing, the cells were suspended with gentle pipetting into a serum-free media. 50 μl of 0.4% trypan blue solution (Sigma, Cat. #T-8154) were added (final concentration of 0.08%) to 200 μl cell suspension, and the suspension was mixed at room temperature. Within 3 minutes of the trypan blue solution addition, stained cells were counted. Cell mortality was determined [100-cell survival rate (%)] based on the stained cell count. LDH assay was performed using a kit (LDH-Cytotoxic Test; Wako Pure Chemical Industries, Cat. #299-50601) by sampling 6 μl of media in which neurons were cultured. Calcein staining was performed as described in literature (Bozyczko-Coyne, D. et al. (1993) Journal of Neuroscience Methods 50, 205-216). Specifically, 6 μM Calcein-AM (3′, 6′-Di-(O-acetyl)-2′-7′-bis[N,N-bis(carboxymethyl)aminomethyl]fluorescein, tetraacetoxymethyl ester; Dojindo, Cat. #349-07201) was added to the neurons; and 30 minutes or longer after Calcein-AM treatment, fluorescence (ex=490 nm, em=515 nm) was observed by fluorescence microscopy, and measured by a spectrometer. Specific fluorescence was calculated by subtracting basal fluorescence from total fluorescence. Basal fluorescence was assigned to be the value calculated from linear trypan blue positivity-fluorescence intensity relationship, corresponding to 100% trypan blue positivity.

The test system of data set [2] is primary cultured cortical neurons treated with Aβ1-43. Nature of the data set: Aβ1-43-induced cell death of primary cultured cortical neurons, trypan blue exclusion assay. Type of data set: cell-based. The note with it: for effect on Aβ1-43-induced cell death: 25 μM Aβ1-43, confirmed by LDH release and Calcein staining; for cell mortality: mean ±S.D. As to the method:
Primary culture of mouse cortical neurons was performed in poly-D-lysine-coated 24-well plates (Sumitomo Bakelite) in the absence of serum and in the presence of N2 supplement, as described in literature (Ecksioglu, Y. Z. et al. (1994) Brain Res. 644, 282-90). The purity of neurons prepared according to the method was >98%. The prepared neurons (1.25×10^5/well, 250 μl media/well) were preincubated in the absence or presence of 10 nM or 10 μM sHN polypeptides for 16 hours; and were treated with 25 μM Aβ1-43 in the absence or presence of sHN polypeptides at the same concentrations for 24 to 72 hours. Since primary cultured neurons are damaged even by temporary dryness during medium exchange, treatment of the cells by Aβ1-43 was performed as follows. First, half of the volume of the old medium (125 μl) was discarded. Then, 125 μl of pre-warmed fresh medium containing 50 μM Aβ1-43 and sHN with a concentration indicated above were added to the culture.
as §2

The test system of data set [3] is F11 cells transfected with V642I APP cDNA. Nature of the data set: V642I APP-induced F11 cell death, trypan blue exclusion assay. To be noted: for cell mortality (%): V642I APP cDNA, treated with 10 μM sHN polypeptides, mean ±S.D. Format: cell-based. The method, then: as §1, §2
Data set [4] has as its system F11/EcR cells transfected with ecdysone-inducible Q79 plasmid. The data set can be described thus: Polyglutamine Q79-induced F11/EcR cell death (ecdysone-inducible), trypan blue exclusion assay. To be noted: 1 μM polypeptide, 72 hours. Format: cell-based. The method, then: F11/EcR cell experiment using ecdysone was conducted as follows: F11/EcR cells were seeded at 7×10^4/well into a 6-well plate; cultured for 12 to 16 hours in HamF-12 media containing 18% FBS; and were similarly transfected in the absence of serum for 3 hours with 1 μg of ecdysone-inducible plasmid alone, or with 1 μg of HN-encoding plasmid, as mentioned above. After culturing for 12 to 16 hours in HamF-12 media containing 18% FBS, the cells were cultured for 2 hours in HamF-12 media containing 10% FBS, then ecdysone (Ponasterone) was added to the media (final concentration of 40 μM). Cell death was measured 72 hours after ecdysone treatment. Experiments using synthetic HN polypeptides were conducted as follows: cells were similarly transfected for 3 hours with FAD genes in the absence of serum; cultured for 12 to 16 hours in HamF-12 media containing 18% FBS; cultured for 2 hours in HamF-12 media containing 10% FBS and various concentrations of HN polypeptide; and then, 40 μM Ponasterone was added to the media. Cell death was measured by trypan blue exclusion assay after 72 hours from the ecdysone treatment. HD/SCA-associated Q79 cDNAs were also similarly transfected, and the neurotoxicity was tested.
(§3) Trypan blue exclusion assay was performed as follows. […] Within 3 minutes of the trypan blue solution addition, stained cells were counted. Cell mortality was determined [100-cell survival rate (%)] based on the stained cell count. […] Specifically, 6 μM Calcein-AM (3′, 6′-Di-(O-acetyl)-2′-7′-bis[N,N-bis(carboxymethyl)aminomethyl]fluorescein, tetraacetoxymethyl ester; Dojindo, Cat. #349-07201) was added to the neurons; and 30 minutes or longer after Calcein-AM treatment, fluorescence (ex=490 nm, em=515 nm) was observed by fluorescence microscopy, and measured by a spectrometer. Specific fluorescence was calculated by subtracting basal fluorescence from total fluorescence. Basal fluorescence was assigned to be the value calculated from linear trypan blue positivity-fluorescence intensity relationship, corresponding to 100% trypan blue positivity.

The test system of data set [5] is F11 cells transfected with SOD1 mutants (A4T, G85R, G93A). Nature of the data set: ALS-associated SOD1 mutant-induced F11 cell death, trypan blue exclusion assay. Format: cell-based, rat/mouse hybrid. To be noted: 100 μM polypeptide. The method, then: as §1
as §3, with “Basal fluorescence was assigned to be the value calculated from linear trypan blue positivity-fluorescence intensity relationship, corresponding to 100% trypan blue positivity.” left out

The mark [6] stands for this setting: 25 μM Aβ1-43, 72 hours, 10 nM polypeptide.

pIC50: −log10 of the molar value. “Also recorded” adds a separate entry of the source. No end group written: not given here.

With “AGA-HNG: HNG (S14G HN) mutated at two positions, R4A/F6A (MAPAGASCLLLLTGEIDLPVKRRA; artificially synthesized sequence (AGA-HN))”, in data set [1], the “concentration showing significant or sufficient neuroprotective action” value is recorded as “about 1 nM”, the “concentration giving complete antagonism/rescue of neuronal death” value is listed as 0.1 nM and the “neuroprotective activity relative to HNG” value was “higher rescue activity compared to HNG; also recorded: several folds higher”. Also, the “concentration giving complete rescue of cell death by Aβ” value in data set [2] (25 μM Aβ1-43, 72 hours) turned out to be 0.3 nM.

As for MAPRGFSCLLLLTGEIDLPVKRRA [sHNG], the pIC50 (usually −log10 of the IC50, conventionally taken in molar units) in data set [3] (72 h) was approximately 10.00. Besides, the “concentration giving complete antagonizing effect on V642I APP-induced cell death” value in data set [3] (synthetic polypeptide, 72 hours) is listed as not above 10 nM. For the same substance, in data set [1], the “concentration showing significant or sufficient neuroprotective action” value is “about 1 nM” and the “concentration giving complete antagonism/rescue of neuronal death” value is not above 10 nM. Also, in data set [1] (NL-APP, M146L PS-1, N141I PS-2), the “concentration giving complete suppression of cell death” value was not above 10 nM. In addition, the “effect on Aβ1-43-induced cell death” value in data set [2] (10 nM polypeptide) was “completely protected”. Also, in data set [4], the “effect on Q79-induced cell death, synthetic polypeptide” value was “Extensive cell death”. The “effect on SOD1 mutant-induced cell death, synthetic polypeptide” value in data set [5] is given as “couldn't be suppressed”.

“HN-17: 17 amino acids from Pro3 to Pro19 of Humanin (PRGFSCLLLLTSEIDLP; artificially synthesized sequence (deltaN2 deltaC5-Humanin; HN-17 ))”: the “antagonizing activity on FAD gene-induced cell death” value in data set [1] (10 μM polypeptide, four FAD genes) is given as “sufficient antagonizing activity”. For the same substance, the “activity to suppress cell death compared to the original HN” value in data set [1] (M146L PS-1) was “slightly lower activity”. For the same substance, in data set [1] (any of the four FAD genes, dose-response), the “concentration showing sufficient protective action” value is “low μM”.

The substance “ARGFSCLLLLTGEIDLP [SEQ ID NO: 25, ARGFSCLLLLTGEIDLP]” yielded a cell mortality in data set [2] (setting [6]) of 75.3±4.4%.

As for MAPRGFSALLLLTSEIDLPVKRRA [sHNA], in data set [3] (72 hours), the “cell mortality (%)” value came to 52.5 ± 3.0%. For the same substance, in data set [3] (concentrations up to 100 μM), the “suppression of V642I APP-induced cell death” value is “did not significantly suppress”. Besides, the “antagonism of cell death by FAD genes” value in data set [1] (NL-APP, M146L PS-1, N141I PS-2, up to 100 μM) is “did not antagonize”. Moreover, the “effect on Aβ1-43-induced cell death” value in data set [2] (10 μM polypeptide) is “did not show any effect”. Moreover, in data set [4], the “effect on Q79-induced cell death, synthetic polypeptide” value is recorded as “Extensive cell death”. In data set [5], the “effect on SOD1 mutant-induced cell death, synthetic polypeptide” value is “couldn't be suppressed”.

For the substance MAPRGFSCRLLLTSEIDLPVKRRA [sHNR], the “cell mortality (%)” value in data set [3] (72 hours) amounted to 17.7 ± 2.2 %.

On to “SEQ ID NO: 54: HNG with Cys at position 8 substituted with Arg (MAPRGFSRLLLLTGEIDLPVKRRA)”, for which, in data set [3] (10 nM polypeptide), the “suppression of V642I APP-induced cell death” value is reported as “significant suppression activity”. In addition, in data set [1], the “suppression of FAD gene-induced cell death” value was “inhibited neuronal death” and the “neuroprotective activity relative to HNG” value is reported as “comparable to the original HNG polypeptide”. Further, in data set [2] (10 nM polypeptide), the “effect on Aβ1-43-induced cell death” value is “suppressed cell death”.

With “SEQ ID NO: 48: HNG with Cys at position 8 substituted with Lys (MAPRGFSKLLLLTGEIDLPVKRRA)”, in data set [3] (10 nM polypeptide), the “suppression of V642I APP-induced cell death” value is on record as “significant suppression activity”. Besides, in data set [1], the “suppression of FAD gene-induced cell death” value is reported as “inhibited neuronal death” and the “neuroprotective activity relative to HNG” value is “comparable to the original HNG polypeptide”. In addition, the “effect on Aβ1-43-induced cell death” value in data set [2] (10 nM polypeptide) is listed as “suppressed cell death”.

On to “SEQ ID NO: 46: HNG with Cys at position 8 substituted with His (MAPRGFSHLLLLTGEIDLPVKRRA)”, for which, in data set [3] (10 nM polypeptide), the “suppression of V642I APP-induced cell death” value is “significant suppression activity”. Besides, in data set [1], the “suppression of FAD gene-induced cell death” value is recorded as “inhibited neuronal death” and the “neuroprotective activity relative to HNG” value was “slight decrease in the cell death suppression activity”. Further, in data set [2] (10 nM polypeptide), the “effect on Aβ1-43-induced cell death” value is “suppressed cell death”.

With PRGFSCLLLLTGEIDLP [HNG-17], in data set [1], the “suppression of FAD gene-induced cell death” value is “completely antagonize”. Also, in data set [2] (setting [6]), the cell mortality worked out at 28.8±2.3%. In addition, the “effect on Aβ1-43-induced cell death” value in data set [2] (10 nM polypeptide) is listed as “completely antagonize”.
